Source: US10155021B2, “Antimicrobial 4-oxoquinolizines” (Emergent Product Development Gaithersburg Inc., priority 2011, dated 2018)
Like-named read-outs stand apart in the source and are kept apart here.

Tests used:
[1] = test system: Acinetobacter spp. H064200250; test: MIC determination for Acinetobacter strains (Example 3); type: cell-based, Acinetobacter sp.; conditions: LEV R, CIP R, MRP R, IMP I
A. baumannii A472 [2] = test: as above; type: cell-based; conditions: LEV R, CIP R, MRP I, IMP I, AMK R, TET R
A. baumannii J2 [3] = test: MIC without and with sub-inhibitory polymyxin B (Example 4); type: cell-based, Acinetobacter baumannii; conditions: Acinetobacter baumannii, J2, A. baumannii J2, without polymyxin B, read-out: MIC without PB
A. baumannii A489 [4] = test: as above; type: cell-based, Acinetobacter baumannii; conditions: Acinetobacter baumannii, A489, A. baumannii A489, without polymyxin B, read-out: MIC without PB
A. baumannii A 401 = test: MIC determination for Acinetobacter strains (Example 3); type: cell-based; conditions: A401, LEV R, CIP R, AMK R, TET R
A. baumannii A329 [5] = test: MIC without and with sub-inhibitory polymyxin B (Example 4); type: cell-based, Acinetobacter baumannii; conditions: Acinetobacter baumannii
E. coli CTX-M-15 = test: MIC, panel of quinolone-resistant strains (CLSI); type: cell-based; conditions: Escherichia coli, CTXM15; CIP R, ESBL
A. baumannii A472 [6] = test: MIC without and with sub-inhibitory polymyxin B (Example 4); type: cell-based, Acinetobacter baumannii; conditions: Acinetobacter baumannii, A472, A. baumannii A472, without polymyxin B, read-out: MIC without PB
[7] = test system: resistant strains of A. baumannii and one strain of Acinetobacter sp.; test: MIC without and with sub-inhibitory polymyxin B, whole panel / MIC ranges (Example 4; also strains not listed separately); type: cell-based; conditions: Acinetobacter baumannii
A. baumannii J2 [8] = test: Preliminary MBC without and with sub-inhibitory polymyxin B (Example 4); type: cell-based, Acinetobacter baumannii; conditions: Acinetobacter baumannii, J2, A. baumannii J2, without polymyxin B, preliminary MBC, read-out: MBC without PB
A. baumannii A473 = test: as above; type: cell-based, Acinetobacter baumannii; conditions: Acinetobacter baumannii, A473, A. baumannii A473, without polymyxin B, read-out: MBC without PB
[9] = test system: Acinetobacter sp. (H064200250); test: as above; type: cell-based; conditions: Acinetobacter, without polymyxin B, preliminary MBC, read-out: MBC without PB
In short: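 Read-out: the minimum concentration at which colonies were reduced by ca. 90% relative to positive control, usually seen as isolated colonies or a clear plate. Plates had been kept 18-20 hours at 37° C beforehand.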

P. aeruginosa 143-3-03 = test: MIC, panel of quinolone-resistant strains (CLSI); type: cell-based; conditions: Pseudomonas aeruginosa, 143303; CIP I, POL R
Pseudomonas ssp PER-1 = test: MIC, panel of quinolone-resistant strains (CLSI); type: cell-based, Pseudomonas spp; conditions: PER1, CIP R, ESBL
E. coli 2906 = test: MIC, panel of quinolone-resistant strains (CLSI); type: cell-based; conditions: Escherichia coli, CIP R
A. baumannii ATCC 19606 = test: MIC without and with sub-inhibitory polymyxin B (Example 4); type: cell-based, Acinetobacter baumannii; conditions: Acinetobacter baumannii, ATCC19606, A. baumannii ATCC 19606; without polymyxin B; 2nd experiment; visual reading; read-out: MIC without PB
P. aeruginosa 1388-3-02 = test: MIC, panel of quinolone-resistant strains (CLSI); type: cell-based; conditions: Pseudomonas aeruginosa, 1388302; CIP R, POL R
A. baumannii A401 = test: Preliminary MBC without and with sub-inhibitory polymyxin B (Example 4); type: cell-based, Acinetobacter baumannii; conditions: Acinetobacter baumannii, A401, A baumannii A 401, without polymyxin B, preliminary MBC, read-out: MBC without PB
A. baumannii A489 [10] = test: as above; type: cell-based, Acinetobacter baumannii; conditions: Acinetobacter baumannii, A489, A. baumannii A489, without polymyxin B, read-out: MBC without PB
A. baumannii A329 [11] = test: MIC determination for Acinetobacter strains (Example 3); type: cell-based; conditions: LEV R, CIP R, MRP R, IMP R, AMK R, TET R
Klebsiella ssp KPC-3 = test: MIC, panel of quinolone-resistant strains (CLSI); type: cell-based, Klebsiella spp; conditions: KPC3, CIP R, ESBL
A. baumannii A329 [12] = test: Preliminary MBC without and with sub-inhibitory polymyxin B (Example 4); type: cell-based, Acinetobacter baumannii; conditions: Acinetobacter baumannii, A329, A. baumannii A329, without polymyxin B, read-out: MBC without PB
A. baumannii A390 = test: as above; type: cell-based, Acinetobacter baumannii; conditions: Acinetobacter baumannii, A390, A. baumannii A390, without polymyxin B, preliminary MBC, read-out: MBC without PB
[13] = test system: Acinetobacter sp. (H064200250); test: MIC without and with sub-inhibitory polymyxin B (Example 4); type: cell-based; conditions: Acinetobacter
A. baumannii A472 [14] = test: Preliminary MBC without and with sub-inhibitory polymyxin B (Example 4); type: cell-based, Acinetobacter baumannii; conditions: Acinetobacter baumannii, A472, A. baumannii A472, without polymyxin B, read-out: MBC without PB

Cc1c(-c2cc(F)c(N)cc2F)ccn2c(=O)c(C(=O)O)cc(C3CC3)c12 [Compound 2, 8-(3,6-difluoro-4-amino-phenyl)-1-cyclopropyl-9-methyl-4-oxo-quinolizine-3-carboxylic acid]
0.125 µg/mL: MIC (A. baumannii ATCC 19606)
1 µg/mL: MIC (A. baumannii A329 [5]; A329, read-out: MIC +0.06 μg/ml PB, read with alamar blue, A. baumannii A329, +0.06 μg/ml polymyxin B, 2nd experiment, MIC read with alamar blue)
16 µg/mL: MIC (Pseudomonas ssp PER-1) | MBC (A. baumannii A390; 2nd experiment)
2 µg/mL: MIC (A. baumannii A489 [4]; 1st experiment) | MBC (A. baumannii A473; 1st experiment) | MIC (P. aeruginosa 143-3-03) | MBC (A. baumannii A401; 1st experiment) | MBC (A. baumannii A489 [10]; 1st experiment)
0.5 to 16 µg/mL: MIC ([7]; read-out: MIC range without PB 01-10-2008 n = 8, without polymyxin B, 1st experiment, 8 strains)
0.06 µg/mL: MIC ([13]; read-out: MIC +[…] PB, read with alamar blue, Acinetobacter spp. H064200250 (OXA51), +[…] polymyxin B, 2nd experiment, MIC read with alamar blue)
1 to 16 µg/mL: MIC ([7]; without polymyxin B, 2nd experiment, 11 strains, read-out: MIC range without PB 14-10-2008 n = 11)
4 µg/mL: MIC [1] | MIC (A. baumannii A472 [2]) | MIC (A. baumannii J2 [3]; 1st experiment) | MIC (A. baumannii J2 [3]; 2nd experiment, visual reading) | MIC (A. baumannii A489 [4]; 2nd experiment, visual reading) | MIC (A. baumannii A 401) | MIC (A. baumannii A472 [6]; 1st experiment) | MIC (A. baumannii A472 [6]; 2nd experiment, visual reading) | MBC (A. baumannii J2 [8]; 1st experiment) | MBC (A. baumannii A473; 2nd experiment) | MBC ([9]; Acinetobacter spp. H064200250, 1st experiment) | MBC (A. baumannii A401; 2nd experiment) | MBC (A. baumannii A489 [10]; 2nd experiment) | MIC ([13]; Acinetobacter spp. H064200250 (OXA51), without polymyxin B, 2nd experiment, visual reading, read-out: MIC without PB) | MIC ([13]; Acinetobacter spp. H064200250, without polymyxin B, 1st experiment, read-out: MIC without PB) | MBC (A. baumannii A472 [14]; 1st experiment)
> 32 µg/mL: MIC (E. coli CTX-M-15)
32 µg/mL: MIC (E. coli 2906)
8 µg/mL: MIC (A. baumannii A329 [5]; A329, A. baumannii A329, without polymyxin B, 1st experiment, read-out: MIC without PB) | MIC (A. baumannii A329 [5]; A329, A. baumannii A329, without polymyxin B, 2nd experiment, visual reading, read-out: MIC without PB) | MBC (A. baumannii J2 [8]; 2nd experiment) | MBC ([9]; Acinetobacter spp. H064200250 (OXA51), 2nd experiment) | MIC (P. aeruginosa 1388-3-02) | MIC (A. baumannii A329 [11]) | MIC (Klebsiella ssp KPC-3) | MBC (A. baumannii A329 [12]; 1st experiment) | MBC (A. baumannii A329 [12]; 2nd experiment) | MBC (A. baumannii A390; 1st experiment) | MBC (A. baumannii A472 [14]; 2nd experiment)
